In experiment [1] the test system is Tobacco callus/P. lunatus callus. As to the kind of experiment: trans-Zeatin equivalents based on Tobacco callus/P. lunatus callus bioassay. The experiment is classed as cell-based. The conditions noted are these: for nM in tZ E[…] KELPAK / nM in tZ EQUIVALENTS IN KELPAK: contribution of the cytokinin in Kelpak. From the text:
It can be seen from Table 4 that there is significant variation in activity between the cytokinins. The minimum concentration required for an effect and the optimum concentration in the tobacco callus assay are much better for iP and tZ than the other cytokinins, with BA still quite good.
The activity of pT in this assay has not been reported.
Nevertheless, the response of plant growth to different cytokinins can vary depending on the specific circumstances.

For experiment [2], the system named is Phaseolus lunatus callus. The conditions noted are these: cited from earlier work; for MINIMUM CONCENTRATION / OPTIMUM CONCENTRATION: P. lunatus callus bioassay, Matsbuara 1990; for EC50: Phaseolus lunatus callus, Mok et al. 2005, read-out: concentration at which one half of the maximal growth is achieved.
In experiment [3] the test system is Phaseolus vulgaris callus. The conditions noted are these: Phaseolus vulgaris callus assay; Matsbuara 1990; cited from earlier work.
The test system of experiment [4] is tobacco callus. The conditions noted are these: tobacco callus bioassay, cited from earlier work; for MINIMUM CONCENTRATION / OPTIMUM CONCENTRATION: Matsubara 1990, Letham et al. 1983; for minimum concentrations required for activity compared to tZ and BA: fold worse.
Experiment [5] deals with Pea test. The note with it: used to make it equivalent to IAA; Pilet 1971; cited from earlier work.
The mark [6] stands for this setting: contribution of the cytokinin in Composition 1.
[7] abbreviates: contribution of the cytokinin in Composition 2.

Consider `C/C(=C/CNc1ncnc2nc[nH]c12)CO` [cis-zeatin (cZ), cis-zeatin], for which the “nM in tZ E[…] ROOM T[…] (COMPOSITION 1)” value in experiment [1] (setting [6]) came out at 0.03 nM. In addition, the “nM in tZ E[…] 90° C. EXTRACT (COMPOSITION 2)” value in experiment [1] (setting [7]) was 0.03 nM. Moreover, in experiment [1], the “nM in tZ E[…] KELPAK” value stood at 0.00008 nM. In experiment [2], the MINIMUM CONCENTRATION is 0.03 µM, the OPTIMUM CONCENTRATION is 3 µM and the EC50 is about 300 nM. For the same compound, in experiment [3], the MINIMUM CONCENTRATION was 0.01 µM and the OPTIMUM CONCENTRATION was 3 µM. Further, in experiment [4], the “MINIMUM CONCENTRATION” value was 0.03 µM and the “OPTIMUM CONCENTRATION” value was 0.5 µM.
On to `CC(CCNc1ncnc2nc[nH]c12)CO[C@@H]1O[C@H](CO)[C@@H](O)[C@H](O)[C@H]1O` (stereo partly drawn) [Dihydrozeatin-O-glucoside (DHZOG), Dihydrozeatin-O-glucoside], for which the “MINIMUM CONCENTRATION” value in experiment [4] is 0.001 µM.
Turning to “trans-zeatin-O-glucoside [trans-zeatin-O-glucoside (tZOG)]”, in experiment [1], the “nM in tZ E[…] KELPAK” value was 3.6 nM. For the same compound, the “MINIMUM CONCENTRATION” value in experiment [4] was 0.001 µM.
For the compound “trans-zeatin-9-glucoside [trans-zeatin-9-glucoside (tZ9G)]”, the “MINIMUM CONCENTRATION” value in experiment [4] was over 50 µM.
As for `Oc1cccc(CNc2ncnc3nc[nH]c23)c1` [mT, meta-topolin], in experiment [2], the EC50 was about 50 nM. Also, in experiment [4] (Holub et al. 1998), the “optimum concentration compared to tZ” value was “similar”; the “minimum concentrations required for activity compared to tZ and BA” value was “similar”.
Consider `CC(CO)CCNc1ncnc2nc[nH]c12` (stereo not drawn) [dihydrozeatin (DHZ), dihydrozeatin], for which, in experiment [4], the “MINIMUM CONCENTRATION” value is 0.01 µM and the “OPTIMUM CONCENTRATION” value was 0.4 µM.
With `CC(CCNc1ncnc2c1ncn2C1OC(CO)C(O)C1O)COC1OC(CO)C(O)C(O)C1O` (stereo not drawn) [dihydrozeatin riboside-O-glucoside], the “nM in tZ EQUIVALENTS IN KELPAK” value in experiment [1] is listed as 0.00003 nM. Moreover, in experiment [4], the “MINIMUM CONCENTRATION” value is 0.002 µM.
Take “cis-zeatin riboside [cis-zeatin riboside (cZR)]”: in experiment [4], the “MINIMUM CONCENTRATION” value is 0.03 µM and the “OPTIMUM CONCENTRATION” value is 0.3 µM.
With `Oc1ccccc1CNc1ncnc2nc[nH]c12` [ortho-topolin (oT), ortho-topolin], in experiment [1], the “nM in tZ EQUIVALENTS IN KELPAK” value stood at 0.002 nM. For the same compound, the EC50 in experiment [2] is about 1000 nM. Moreover, the “minimum concentrations required for activity compared to tZ and BA” value in experiment [4] (Holub et al. 1998) is given as 100 fold.
Consider `CC(CO)CCNc1ncnc2c1ncn2[C@@H]1O[C@H](CO)[C@@H](O)[C@H]1O` (stereo partly drawn) [dihydrozeatin riboside (DHZR), dihydrozeatin riboside], for which the “nM in tZ EQUIVALENTS IN KELPAK” value in experiment [1] worked out at 0.00001 nM. Further, in experiment [4], the “MINIMUM CONCENTRATION” value is 0.01 µM and the “OPTIMUM CONCENTRATION” value is 4 µM.
In the case of `c1coc(CNc2ncnc3[nH]cnc23)c1` [kinetin (K), kinetin], in experiment [4], the “MINIMUM CONCENTRATION” value was 0.001 µM and the “OPTIMUM CONCENTRATION” value is 0.1 µM.
As for `C/C(=C\CNc1ncnc2c1ncn2[C@@H]1O[C@H](CO)[C@@H](O)[C@H]1O)CO` (relative stereo) [trans-zeatin riboside (tZR), trans-zeatin riboside], the results for the MINIMUM CONCENTRATION in experiment [2], in experiment [3] and in experiment [4] were 0.003 µM, 0.03 µM and 0.003 µM, respectively. Also, the values for the OPTIMUM CONCENTRATION in experiment [2], in experiment [3] and in experiment [4] were 0.1 µM, 3 µM and 0.3 µM, respectively.
As to trans-zeatin riboside-O-glucoside, in experiment [1], the “nM in tZ E[…] KELPAK” value is recorded as 0.0005 nM. The “MINIMUM CONCENTRATION” value in experiment [4] is 0.003 µM.
In the case of `OC[C@H]1O[C@@H](n2cnc3c(NCc4ccccc4)ncnc32)[C@H](O)[C@@H]1O` [N6-benzyladenosine (BAR), N6-benzyladenosine], the “nM in tZ EQUIVALENTS IN KELPAK” value in experiment [1] is 0.0001 nM. In experiment [4], the “MINIMUM CONCENTRATION” value is 0.02 µM and the “OPTIMUM CONCENTRATION” value is 1 µM.
`OC[C@H]1O[C@@H](n2cnc3c(NCc4ccccc4O)ncnc32)[C@H](O)[C@@H]1O` [oTR, ortho-topolin riboside]: in experiment [4] (Holub et al. 1998), the “minimum concentrations required for activity compared to tZ and BA” value is given as 100 fold.
For `COC(=O)C(=O)c1c[nH]c2ccccc12` [IGAMe, indole-3-glyoxylic acid methyl ester], the “activity relative to IAA” value in experiment [5] is 1/28.
With `C/C(=C\CNc1ncnc2nc[nH]c12)CO` [trans-zeatin (tZ), trans-zeatin], the “nM in tZ E[…] KELPAK” value in experiment [1] is on record as 0.29 nM. Besides, in experiment [2], the MINIMUM CONCENTRATION was 0.001 µM, the OPTIMUM CONCENTRATION was 0.3 µM and the EC50 is about 20 nM. For the same compound, in experiment [3], the MINIMUM CONCENTRATION is 0.0301 µM and the OPTIMUM CONCENTRATION is 3 µM. For the same compound, in experiment [4], the “MINIMUM CONCENTRATION” value was 0.0001 µM and the “OPTIMUM CONCENTRATION” value is 0.004 to 0.05 µM.
For `c1ccc(CNc2ncnc3nc[nH]c23)cc1` [N6-benzyladenine (BA), N6-benzyladenine], in experiment [1] (setting [7]), the “nM in tZ EQUIVALENTS IN 90° C. EXTRACT (COMPOSITION 2)” value came to 0.0002 nM. The “nM in tZ EQUIVALENTS IN KELPAK” value in experiment [1] is on record as 0.01 nM. Besides, in experiment [2], the MINIMUM CONCENTRATION was 0.01 µM, the OPTIMUM CONCENTRATION was 3 µM and the EC50 was about 40 nM. The MINIMUM CONCENTRATION in experiment [3] was 0.001 µM. For the same compound, in experiment [4], the “MINIMUM CONCENTRATION” value is 0.0008 µM and the “OPTIMUM CONCENTRATION” value is 0.07 µM.
With `Oc1ccc(CNc2ncnc3nc[nH]c23)cc1` [para-topolin (pT), para-topolin], in experiment [1] (setting [6]), the “nM in tZ EQUIVALENTS IN ROOM TEMPERATURE EXTRACT (COMPOSITION 1)” value came out at 0.0001 nM. The “nM in tZ EQUIVALENTS IN 90° C. EXTRACT (COMPOSITION 2)” value in experiment [1] (setting [7]) came to 0.09 nM. For the same compound, the EC50 in experiment [2] is about 30000 nM.
